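In this assay, cells in 96-well plates receive the compound at five concentrations for 48 hours. Endpoints are linearly interpolated between the surrounding concentrations. Abbreviation: GI50, concentration required for 50% inhibition of growth.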 Activity calls are given as the source filed them. Cut-off read from the data, not from the text of the source: active = GI50 up to about 1.1 µM and inactive = higher.
Tests used:
Test in all cases: NCI anticancer screen, dose series, 48 h
DMS-273 = test system: DMS-273
A549 = test system: A549
NCI-H460 = test system: NCI-H460
M14 = test system: M14
EKVX = test system: EKVX
IGROV-1 = test system: IGROV-1
SW-620 = test system: SW-620
A498 = test system: A498
MOLT-4 = test system: MOLT-4
KM-20L2 = test system: KM-20L2
ACHN = test system: ACHN
SK-OV-3 = test system: SK-OV-3
UO-31 = test system: UO-31
HOP-18 = test system: HOP-18
DMS-114 = test system: DMS-114
HCT-116 = test system: HCT-116
OVCAR-8 = test system: OVCAR-8
TK-10 = test system: TK-10
DLD-1 = test system: DLD-1
RPMI-8226 = test system: RPMI-8226
SNB-19 = test system: SNB-19
SK-MEL-5 = test system: SK-MEL-5
CAKI-1 = test system: CAKI-1
LXFL 529 = test system: LXFL 529
HCT-15 = test system: HCT-15
K562 = test system: K562
KM12 = test system: KM12
HOP-92 = test system: HOP-92
SNB-78 = test system: SNB-78
HT-29 = test system: HT-29
OVCAR-5 = test system: OVCAR-5
SF-268 = test system: SF-268
UACC-62 = test system: UACC-62
OVCAR-4 = test system: OVCAR-4
786-0 = test system: 786-0
COLO 205 = test system: COLO 205
U-251 = test system: U-251
NCI-H23 = test system: NCI-H23
UACC-257 = test system: UACC-257
SK-MEL-28 = test system: SK-MEL-28
SR = test system: SR
RXF 393 = test system: RXF 393
SF-539 = test system: SF-539
SF-295 = test system: SF-295
SN12C = test system: SN12C
M19-MEL = test system: M19-MEL
HL-60 = test system: HL-60
HOP-62 = test system: HOP-62
HCC 2998 = test system: HCC 2998
SNB-75 = test system: SNB-75
Malme-3M = test system: Malme-3M
SK-MEL-2 = test system: SK-MEL-2
NCI-H226 = test system: NCI-H226
OVCAR-3 = test system: OVCAR-3
CCRF-CEM = test system: CCRF-CEM
NCI-H522 = test system: NCI-H522
LOX IMVI = test system: LOX IMVI
BT-549 = test system: BT-549
MDA-N = test system: MDA-N
NCI/ADR-RES = test system: NCI/ADR-RES
T47D = test system: T47D
MDA-MB-435 = test system: MDA-MB-435
MDA-MB-231 = test system: MDA-MB-231
Hs-578T = test system: Hs-578T
MCF7 = test system: MCF7
PC-3 = test system: PC-3
DU-145 = test system: DU-145

Measured: GI50

c1ccc2c(c1)[nH]c1c2nc2ccccn21
inactive: DMS-273 > 100 µM | A549 > 100 µM | NCI-H460 > 100 µM | M14 > 100 µM | EKVX > 100 µM | IGROV-1 > 100 µM | SW-620 > 100 µM | A498 > 100 µM | MOLT-4 > 100 µM | KM-20L2 > 100 µM | ACHN > 100 µM | SK-OV-3 > 100 µM | UO-31 > 100 µM | HOP-18 > 100 µM | DMS-114 > 100 µM | HCT-116 > 100 µM | OVCAR-8 > 100 µM | TK-10 69 µM | DLD-1 > 100 µM | RPMI-8226 > 100 µM | SNB-19 > 100 µM | SK-MEL-5 > 100 µM | CAKI-1 > 100 µM | LXFL 529 > 100 µM | K562 > 100 µM | KM12 > 100 µM | HOP-92 > 100 µM | SNB-78 > 100 µM | HT-29 > 100 µM | OVCAR-5 > 100 µM | SF-268 > 100 µM | UACC-62 > 100 µM | OVCAR-4 > 100 µM | 786-0 > 100 µM | COLO 205 > 100 µM | U-251 > 100 µM | NCI-H23 > 100 µM | UACC-257 > 100 µM | SK-MEL-28 > 100 µM
> 100 µM: HCT-15

CN1C(=O)C(C)(C)C2(SC(C)(C)C2(C)C)N(C)C1=S (stereo unspecified)
> 100 µM: HCT-15
inactive: DMS-273 > 100 µM | A549 > 100 µM | NCI-H460 > 100 µM | SR 55.3 µM | M14 > 100 µM | RXF 393 > 100 µM | SF-539 > 100 µM | SF-295 > 100 µM | EKVX 32 µM | IGROV-1 > 100 µM | SW-620 > 100 µM | SN12C > 100 µM | MOLT-4 89.3 µM | ACHN > 100 µM | M19-MEL > 100 µM | SK-OV-3 36.1 µM | UO-31 > 100 µM | HOP-18 > 100 µM | DMS-114 67.3 µM | HCT-116 > 100 µM | OVCAR-8 > 100 µM | HL-60 96.2 µM | HOP-62 > 100 µM | HCC 2998 > 100 µM | DLD-1 > 100 µM | RPMI-8226 > 100 µM | SNB-19 > 100 µM | SK-MEL-5 > 10 µM | CAKI-1 8.49 µM | LXFL 529 > 100 µM | SNB-75 > 100 µM | K562 53.8 µM | KM12 > 100 µM | HOP-92 27.8 µM | Malme-3M > 100 µM | SNB-78 > 100 µM | SK-MEL-2 > 100 µM | HT-29 > 100 µM | OVCAR-5 > 100 µM | SF-268 > 100 µM | UACC-62 2.12 µM | OVCAR-4 > 100 µM | NCI-H226 > 100 µM | OVCAR-3 > 100 µM | 786-0 > 100 µM | COLO 205 > 100 µM | CCRF-CEM > 100 µM | U-251 > 100 µM | NCI-H522 86.7 µM | NCI-H23 > 100 µM | UACC-257 > 100 µM | SK-MEL-28 > 100 µM

CCOC(=O)C(SCCO)C(C(=O)OCC)n1cnc2c(N)ncnc21 (stereo unspecified)
inactive: A549 44.3 µM | NCI-H460 12.4 µM | LOX IMVI 5.61 µM | SR 4.63 µM | BT-549 15.3 µM | M14 5.07 µM | RXF 393 14.6 µM | SF-539 16.3 µM | SF-295 40.2 µM | EKVX 16.5 µM | IGROV-1 16.1 µM | SW-620 3.01 µM | A498 14.9 µM | SN12C 9.98 µM | MOLT-4 4.78 µM | MDA-N 15.8 µM | ACHN 10.5 µM | SK-OV-3 54.7 µM | UO-31 20.7 µM | HCT-116 8.95 µM | NCI/ADR-RES 19.8 µM | OVCAR-8 13.9 µM | HL-60 2 µM | TK-10 15 µM | HOP-62 21.7 µM | HCC 2998 13.8 µM | RPMI-8226 5.04 µM | SNB-19 28.5 µM | SK-MEL-5 23.1 µM | CAKI-1 4.31 µM | T47D 11.2 µM | MDA-MB-435 13.6 µM | SNB-75 12.1 µM | K562 3.66 µM | KM12 17.1 µM | HOP-92 2.47 µM | Malme-3M 9.91 µM | MDA-MB-231 15.5 µM | SK-MEL-2 15.8 µM | HT-29 11 µM | Hs-578T 17.3 µM | OVCAR-5 7.05 µM | SF-268 15.9 µM | UACC-62 12.3 µM | OVCAR-4 18.7 µM | NCI-H226 11.1 µM | MCF7 5.55 µM | OVCAR-3 12.7 µM | PC-3 6.05 µM | 786-0 3.03 µM | COLO 205 6.03 µM | CCRF-CEM 1.96 µM | U-251 7.26 µM | NCI-H522 3.46 µM | NCI-H23 14.8 µM | UACC-257 35.1 µM | SK-MEL-28 17.3 µM | DU-145 > 67.3 µM
6.27 µM: HCT-15

C[N+](C)(CCNC(=O)c1cccc2cc3ccccc3nc12)Cc1ccc([N+](=O)[O-])cc1
> 100 µM: HCT-15
inactive: A549 > 100 µM | NCI-H460 > 100 µM | LOX IMVI > 100 µM | SR > 100 µM | BT-549 > 100 µM | M14 > 100 µM | RXF 393 > 100 µM | SF-539 > 100 µM | SF-295 > 100 µM | EKVX > 100 µM | IGROV-1 > 100 µM | SW-620 > 100 µM | A498 > 100 µM | SN12C > 100 µM | MOLT-4 > 100 µM | MDA-N > 100 µM | ACHN > 100 µM | SK-OV-3 > 100 µM | UO-31 > 100 µM | HCT-116 > 100 µM | NCI/ADR-RES > 100 µM | OVCAR-8 > 100 µM | HL-60 > 100 µM | TK-10 > 100 µM | HOP-62 > 100 µM | HCC 2998 > 100 µM | RPMI-8226 > 100 µM | SNB-19 > 100 µM | SK-MEL-5 50 µM | CAKI-1 > 100 µM | T47D > 100 µM | MDA-MB-435 > 100 µM | SNB-75 > 100 µM | K562 > 100 µM | KM12 > 100 µM | HOP-92 > 100 µM | Malme-3M 49.5 µM | MDA-MB-231 > 100 µM | SK-MEL-2 > 100 µM | HT-29 > 100 µM | Hs-578T > 100 µM | OVCAR-5 > 100 µM | SF-268 > 100 µM | UACC-62 > 100 µM | OVCAR-4 > 100 µM | NCI-H226 > 100 µM | MCF7 > 100 µM | OVCAR-3 > 100 µM | PC-3 > 100 µM | 786-0 > 100 µM | COLO 205 > 100 µM | CCRF-CEM > 100 µM | U-251 > 100 µM | NCI-H522 > 100 µM | NCI-H23 > 100 µM | UACC-257 > 100 µM | SK-MEL-28 > 100 µM | DU-145 > 100 µM

Reference: ChEMBL document CHEMBL1201862, “PubChem BioAssay data set” (2004)
